Earlier results in patent US20020155976A1, “Cleaning compositions” (Unilever Home & Personal Care USA, Division of Conopco, Inc., priority 2000, published 2002).
Where two headings read alike, the source gives them in different places.

[1] = at 20° C., other common materials, by contrast

SMILES | Water Solubility [1] [g/100 g] | Water Solubility (grams of solid to form a saturated solution in 100 grams of water at 20° C., highly water-soluble materials) [g/100 g]
O=P(O)(O)OP(=O)(O)OP(=O)(O)O [Sodium tripolyphosphate anhydrous] | 15 | –
O=BO[O-].[Na+] [Sodium perborate anhydrous] | 3.7 | –
NC(N)=O [Urea] | – | >100
